Results on two molecules are retold here after article PMC11213822, “Copper resistance in the cold: Genome analysis and characterisation of a PIB‐1 ATPase in Bizionia argentinensis” (Environmental Microbiology Reports, 2024).

The target in data set [1] is T1, BaCopA1 (Bizionia argentinensis, UniProt G2EDW3).
T1 construct: gene BZARG_1779; C-terminal TEV site-GFP-His tag not removed (tag printed as His6 and his8); expressed in S. cerevisiae FGY217, detergent-solubilised, Ni-NTA purified in C12E10
The data set is described as follows: time course of Pi release, malachite green. Format: biochemical. The settings on record: 2.0 mM ATP, 2.0 mM MgCl2, 0.1 mM CuSO4, 20 mM cysteine, pH 8.0, 5 °C; 10 μM vanadate.

Substrate in data set [2]: Nc1ncnc2c1ncn2[C@@H]1O[C@H](COP(=O)(O)OP(=O)(O)OP(=O)(O)O)[C@@H](O)[C@H]1O
The data set is described as follows: purified protein. The note with it: free Mg2+ 0.25 mM, 0.1 mM CuSO4, 20 mM cysteine, asolectin/C12E10, pH 8.0, 5 °C.

On to `[O]=[V]([OH])([OH])[OH]` [vanadate], for which, in data set [1], the “inhibition at 10 μM” value is on record as “an inhibitory effect of ATPase activity occurs with the addition of vanadate”.

B1: BaCopA1 (Bizionia argentinensis JUB59) (protein)
chain: MTCNGCRSHVEEILSKVKYVLKASVDLEKEEATIEMESHIPIEKFQNALKNDGGRYSIHKNPLPGSPKGRSNKTDKSKSEKSPLRGLGDTFYCPMHCEGDKIYDKPGDCPVCGMDLVEEQNLSTSNSEQWTCPMHPEVVKDEAGPCPICGMDLVPMQADSSAEEKTYKKLLKKFWIASIFTLPIFIMAMSEMLTNNPLYDIMDQKNWNWVQFALSIPVVFYATWMFFERAYKSIKTWNLNMFTLIGIGAGVAWLFSVFGMFFPDVFPSQFRSESGAVHVYFEAATVILTLVLLGQLLEARAHSKTNSAVKELLKLAPNKATKVVNGEDVEVSIDNIELNDILKVKPGDKIPVDGVITEGVTTIDESMITGEPVPVDKTEGDKVSSGTINGNQSFLMKAEKVGSHTLLSQIIHMVNTASRSRAPIQNLADKVSGYFVPVVVLISLITFAVWAIWGPEPAYVYALVNAIAVLIIACPCALGLATPMSVMVGVGKGAQNGVLIKNAEALEKLDKVDTLIVDKTGTITEGKPTVEKMGAFSDVFSESDVLQYIVSLNSNSEHPLAEATVKYGKEQKAEIIKSDAFSAVTGKGVEATINNKKVALGNPKMMEYAQAEITSQMQDEAKTYQKQGKTVSYLAIDKIVIGYVVIGDKIKATSAKAIKELQDKGIAVIMLTGDNHDTAQAVASELNLADFKASMLPEDKLKEVEKLQKEGKVVAMAGDGINDAPALAKSDVGIAMGTGTDVAIESAMITLVKGDLNGIVKAKHLSHAVMKNIKQNLFFALIYNTLGVPIAAGVLFPIFGILLSPMIAALAMSFSSVSVIANALRLRTIKI
Usually Km stands for the substrate concentration at which the rate is half of its maximum. Consider B1, for which, in data set [2], the Km stood at 150 ± 30 µM.
